# In publication PMC10508631, “Development of an antibody fused with an antimicrobial peptide targeting Pseudomonas aeruginosa: A new approach to prevent and treat bacterial infections” (PLOS Pathogens, 2023):
# Where two headings read alike, the source gives them in different places. Where a SMILES comes first, the peptide text is derived from it.
# Columns and labels:
# [1] = test system: P. aeruginosa ATCC 27853; assay type: cell-based, Pseudomonas aeruginosa
# Procedure: (§1) All plates were placed at 37°C overnight.
# [2] = test system: P. aeruginosa ATCC 39324; assay type: cell-based, Pseudomonas aeruginosa
# Procedure: as §1
# [3] = test system: 293T human cell line; assay: Mammalian cell cytotoxicity (CellTiter Glo); assay type: cell-based
# Procedure: On day one, cells from an established 293T human cell line were seeded onto 96-well flat-bottom white plates (10,000 293T cells/well). On day two, dilution plates were prepared by diluting compound in cell growth medium to two times the final starting concentration and then carrying out serial two-fold dilutions across the plate. Medium from the cell growth assay plates was then aspirated, and 50 μl from the compound dilution plates were transferred to the assay plates. Fifty microliters of fresh media were then added to all the wells. The plates were incubated at 37°C, 5% CO2 for three days. […]. Media from the assay plates was aspirated, and 100 μl of CellTiter Glo/growth media mix was added to all wells. After five minutes, luminescence was read, and% inhibition vs. compound concentration was plotted.
# [4] = test system: S. aureus 29213; conditions: 29213, 18 h
# Procedure: MICs and a killing assay were performed in this study. MICs were determined according to CLSI guidelines, using 2-fold serial compound dilutions in 96-well microtiter plates. Briefly, compounds were diluted in water across a mother plate and then 2 μl were stamped to assay plates—one plate for each strain to be tested. Bacterial strains were sub-cultured overnight on agar plates at 37°C. […] These concentrated cultures were diluted 1:200 in growth media to approximately 5 x 10^5 cells/ml. All assay plates received 100 μL diluted culture per well. All plates were placed at 37°C overnight. […] Wells at and above the MIC should appear devoid of growth when visualized.
# [5] = test system: P. aeruginosa ATCC 27853; assay: Synergy with antibiotics (MIC); assay type: cell-based, Pseudomonas aeruginosa; conditions: for MIC of the antibiotic alone: P. aeruginosa ATCC 27853; for MIC of the antibiotic in the presence of VSX-1: increasing amounts of VSX-1 (from 0.015 to 4 μg/mL), Fig 4 legend says P297
# Procedure: as §1
# [6] = CLSI microdilution, 2-fold dilutions, ~5 x 10^5 cells/ml, 37°C, 18 hours, MIC = at least 80% growth inhibition
# [7] = 293T cells, 10,000 cells/well, three days, 37°C, CellTiter Glo luminescence
compound,measurement,setting,value
CC[C@H](C)[C@H](NC(=O)[C@@H](NC(=O)[C@H](CCCNC(=N)N)NC(=O)[C@@H]1CCCN1C(=O)[C@H](CCCCN)NC(=O)[C@H](CCCCN)NC(=O)[C@H](Cc1ccccc1)NC(=O)[C@H](Cc1ccccc1)NC(=O)[C@H](CCCCN)NC(=O)[C@H](CCCCN)NC(=O)[C@H](C)NC(=O)[C@H](CCCNC(=N)N)NC(=O)[C@H](CCCCN)NC(=O)[C@H](CCCCN)NC(=O)[C@@H](NC(=O)[C@H](CO)NC(=O)[C@H](CC(N)=O)NC(=O)[C@H](CCCCN)NC(=O)[C@H](CC(C)C)NC(=O)[C@H](CCCCN)NC(=O)[C@H](CCCCN)NC(=O)[C@H](Cc1ccccc1)NC(=O)[C@H](Cc1ccccc1)NC(=O)[C@H](CCCCN)NC(=O)[C@H](CCCCN)NC(=O)[C@H](Cc1ccccc1)NC(=O)[C@H](CCCNC(=N)N)NC(=O)[C@H](CCCCN)NC(=O)CNC(=O)CNC(=O)CN)C(C)C)C(C)C)C(=O)NCC(=O)N[C@H](C(=O)N[C@@H](CO)C(=O)N[C@H](C(=O)N1CCC[C@H]1C(=O)N[C@@H](Cc1ccccc1)C(=O)O)[C@@H](C)CC)C(C)C [P296] (H-GGGKRFKKFFKKLKNSVKKRAKKFFKKPRVIGVSIPF-OH),MIC P. aeruginosa ATCC 27853,"[1]; CLSI microdilution, 2-fold dilutions, ~5 x 10^5 cells/ml, 37°C, 18 hours, MIC = lowest concentration inhibiting growth by at least 80%",4 µg/mL
same,MIC P. aeruginosa ATCC 39324,[2]; [6],2 µg/mL
same,Cytotox CC50,[3]; [7],400 µg/mL
CC[C@H](C)[C@H](NC(=O)[C@@H](NC(=O)[C@@H]1CCCN1C(=O)[C@H](CO)NC(=O)[C@H](CC(C)C)NC(=O)[C@H](CCCCN)NC(=O)[C@H](CCCCN)NC(=O)[C@H](Cc1ccccc1)NC(=O)[C@H](CC(C)C)NC(=O)[C@H](CCCCN)NC(=O)[C@H](CCCCN)NC(=O)[C@H](Cc1ccccc1)NC(=O)[C@H](CCCCN)NC(=O)[C@H](CCCCN)NC(=O)[C@H](CCCNC(=N)N)NC(=O)[C@H](Cc1ccccc1)NC(=O)[C@H](CCCNC(=N)N)NC(=O)[C@H](CCCCN)NC(=O)[C@H](Cc1ccccc1)NC(=O)[C@H](CCCNC(=N)N)NC(=O)CNC(=O)CNC(=O)CNC(=O)CN)C(C)C)C(=O)N1CCC[C@H]1C(=O)N[C@@H](CC(C)C)C(=O)N[C@@H](CC(C)C)C(=O)N[C@@H](Cc1c[nH]cn1)C(=O)N[C@@H](CC(C)C)C(=O)NCC(=O)O [P267] (H-GGGGRFKRFRKKFKKLFKKLSPVIPLLHLG-OH),MIC P. aeruginosa ATCC 27853,"[1]; ATCC 27853, 18 h",4 µg/mL
same,MIC P. aeruginosa ATCC 39324,"[2]; ATCC 39324, 18 h",4 µg/mL
same,MIC S. aureus 29213,[4],16 µg/mL
CC[C@H](C)[C@H](NC(=O)[C@H](CCCCN)NC(=O)[C@H](CCCNC(=N)N)NC(=O)CNC(=O)[C@H](CC(C)C)NC(=O)[C@H](CCCNC(=N)N)NC(=O)[C@H](CCCNC(=N)N)NC(=O)[C@H](CC(C)C)NC(=O)CNC(=O)[C@H](CCCNC(=N)N)NC(=O)CNC(=O)CNC(=O)CN)C(=O)N[C@@H](C)C(=O)N[C@@H](Cc1c[nH]cn1)C(=O)NCC(=O)N[C@H](C(=O)N[C@@H](CCCCN)C(=O)N[C@@H](CCCCN)C(=O)N[C@@H](Cc1ccc(O)cc1)C(=O)NCC(=O)N1CCC[C@H]1C(=O)N[C@H](C(=O)N[C@H](C(=O)N[C@@H](CC(C)C)C(=O)N[C@@H](CCCNC(=N)N)C(=O)N[C@H](C(=O)N[C@H](C(=O)N[C@@H](CCCCN)C(=O)N[C@@H](CCCCN)C(=O)N[C@@H](Cc1ccc(O)cc1)C(=O)NCC(=O)O)[C@@H](C)CC)[C@@H](C)CC)C(C)C)[C@@H](C)O)C(C)C [P294] (H-GGGRGLRRLGRKIAHGVKKYGPTVLRIIKKYG-OH),MIC P. aeruginosa ATCC 39324,"[2]; ATCC 39324, 18 h",2 µg/mL
C[C@@H](O)[C@H]1C(=O)N2C(C(=O)O)=C(S[C@@H]3CN[C@H](C(=O)N(C)C)C3)[C@H](C)[C@H]12 [meropenem],MIC of the antibiotic alone,[5],0.5 µg/mL
same,MIC of the antibiotic in the presence of VSX-1,[5],< 0.1 µg/mL
NC[C@H]1O[C@H](O[C@H]2[C@H](O)[C@@H](O[C@H]3O[C@H](CO)[C@@H](O)[C@H](N)[C@H]3O)[C@H](N)C[C@@H]2N)[C@H](N)C[C@@H]1O [tobramycin],synergy: MIC of the antibiotic in the presence of P297,[5]; Fig 4 legend,did not exhibit an enhanced MIC
colistin,MIC of the antibiotic alone,[5],~ 1 μg/ml
same,MIC of the antibiotic in the presence of VSX-1,[5],< 0.1 µg/mL
CC[C@H](C)[C@H](NC(=O)[C@H](CCCCN)NC(=O)[C@H](CCCCN)NC(=O)[C@H](CC(C)C)NC(=O)[C@H](CCCCN)NC(=O)[C@H](CCC(=O)O)NC(=O)[C@H](CCCCN)NC(=O)[C@@H](NC(=O)[C@H](CCCCN)NC(=O)[C@H](CC(N)=O)NC(=O)[C@H](CCCNC(=N)N)NC(=O)[C@H](Cc1ccccc1)NC(=O)[C@H](CCCCN)NC(=O)[C@H](CCCNC(=N)N)NC(=O)[C@H](CC(C)C)NC(=O)[C@H](CCCNC(=N)N)NC(=O)[C@H](CCCCN)NC(=O)[C@H](CCCNC(=N)N)NC(=O)[C@H](CC(C)C)NC(=O)CNC(=O)CNC(=O)CNC(=O)CN)[C@@H](C)CC)C(=O)NCC(=O)N[C@@H](CCC(N)=O)C(=O)N[C@@H](CCCCN)C(=O)N[C@H](C(=O)N[C@@H](CCC(N)=O)C(=O)NCC(=O)N[C@@H](CC(C)C)C(=O)N[C@@H](CC(C)C)C(=O)N1CCC[C@H]1C(=O)N[C@@H](CCCCN)C(=O)N[C@@H](CC(C)C)C(=O)N[C@@H](C)C(=O)O)[C@@H](C)CC [P271] (H-GGGGLRKRLRKFRNKIKEKLKKIGQKIQGLLPKLA-OH),MIC P. aeruginosa ATCC 39324,[2]; [6],8 µg/mL
same,Cytotox CC50,[3]; [7],250 µg/mL
CC[C@H](C)[C@H](NC(=O)CNC(=O)CNC(=O)CNC(=O)CN)C(=O)NCC(=O)N[C@@H](CCCCN)C(=O)N[C@@H](Cc1ccccc1)C(=O)N[C@@H](CC(C)C)C(=O)N[C@@H](CCCCN)C(=O)N[C@@H](CCCCN)C(=O)N[C@@H](C)C(=O)N[C@@H](CCCCN)C(=O)N[C@@H](CCCCN)C(=O)N[C@@H](Cc1ccccc1)C(=O)NCC(=O)N[C@@H](CCCCN)C(=O)N[C@@H](C)C(=O)N[C@@H](Cc1ccccc1)C(=O)N[C@H](C(=O)N[C@@H](CCCCN)C(=O)N[C@H](C(=O)N[C@@H](CC(C)C)C(=O)N[C@@H](CCCCN)C(=O)N[C@@H](CCCCN)C(=O)O)[C@@H](C)CC)C(C)C [P261] (H-GGGGIGKFLKKAKKFGKAFVKILKK-OH),MIC P. aeruginosa ATCC 39324,[2]; [6],8 µg/mL
same,Cytotox CC50,[3]; [7],250 µg/mL
CC[C@H](C)[C@H](NC(=O)[C@@H](NC(=O)[C@@H]1CCCN1C(=O)[C@H](CO)NC(=O)[C@H](CC(C)C)NC(=O)[C@H](CCCCN)NC(=O)[C@H](CCCCN)NC(=O)[C@H](Cc1ccccc1)NC(=O)[C@H](CC(C)C)NC(=O)[C@H](CCCCN)NC(=O)[C@H](CCCCN)NC(=O)[C@H](Cc1ccccc1)NC(=O)[C@H](CCCCN)NC(=O)[C@H](CCCCN)NC(=O)[C@H](CCCNC(=N)N)NC(=O)[C@H](Cc1ccccc1)NC(=O)[C@H](CCCNC(=N)N)NC(=O)[C@H](CCCCN)NC(=O)[C@H](Cc1ccccc1)NC(=O)[C@H](CCCNC(=N)N)NC(=O)CNC(=O)CNC(=O)CNC(=O)CN)C(C)C)C(=O)N1CCC[C@H]1C(=O)N[C@@H](CC(C)C)C(=O)N[C@@H](CC(C)C)C(=O)N[C@@H](Cc1c[nH]cn1)C(=O)N[C@@H](CC(C)C)C(=O)NCC(=O)O [P295] (H-GGGGRFKRFRKKFKKLFKKLSPVIPLLHLG-OH),MIC P. aeruginosa ATCC 27853,"[1]; ATCC 27853, 18 h",4 µg/mL
same,MIC P. aeruginosa ATCC 39324,"[2]; ATCC 39324, 18 h",4 µg/mL
same,Cytotox CC50,[3],95 µg/mL
